As a reminder, the IC50 is the concentration needed to halve the response being measured.

The values that follow come from patent publication US20230218765A1, “SMALL MOLECULE DEGRADERS OF SHP2 PROTEIN” (THE REGENTS OF THE UNIVERSITY OF MICHIGAN, priority 2020, published 2023).

Molecules are shown by their SMILES. Read-outs that look alike come from different tables or passages of the source.

For experiment [1], the system named is phosphorylation of ERK. The experiment is described as follows: Inhibition of ERK phosphorylation (Western blot) in MV4;11 cells. Format: cell-based. The following applies: for concentration for complete inhibition of pERK: MV4;11, 48 h. The method, then:
(§1) Western blotting and quantification were performed with regular western blot method and band quantification was performed using ImageJ. Treated cells were lysed by RIPA buffer supplemented with protease and phosphatase inhibitors. The cell lysates were separated by 4-12% SDS-PAGE gels and blotted into PVDF (polyvinylidene difluoride) membranes. The net protein bands and loading controls are calculated by deducting the background from the inverted band value. The final relative quantification values are the ratio of the net band to net loading control.
(§2) GAPDH was used as a loading control. (FIG. 3A and FIG. 3B).
(In general: In western blotting, separated proteins are transferred to a membrane and probed.)

Experiment [2] relates to MV4;11 cell line. The experiment is described as follows: Cell growth assay (WST-8) in MV4;11. Format: cell-based. Conditions: for IC50: MV4;11, 4 days, read-out: IC50, cell growth inhibition. As to the method: (§3) Cell viability was evaluated with a WST-8 assay (Dojindo) following the manufacturer’s instructions. Briefly, cells were seeded in 96-well cell culture plates at a density of 10,000-20,000 cells/well in 200 µL for MV4;11 cell line or 2,000-3,000 for KYSE-520 cell line of culture medium containing serial dilution of testing compounds. After 4 days of treatment, cell growth was measured by a lactate dehydrogenase-based WST-8 assay (Dojindo Molecular Technologies) using a Tecan Infinite M-1000 multimode microplate reader (Tecan US, Morrisville, NC). The WST-8 reagent was added to each well, and cells were incubated for an additional 1-2 h and read at 450 nm. The readings were normalized to the vehicle-treated cells, and the IC50 was calculated by nonlinear regression analysis using the GraphPad Prism 6 software.
(§4) Briefly, Cells were treated with indicated doses for 4 days and cell viability was determined by a colorimetric WST-8 assay.

Experiment [3] relates to phosphorylation of ERK. The experiment is described as follows: Inhibition of ERK phosphorylation (Western blot) in KYSE520 cells. It is filed as cell-based. The following applies: for concentration effective in reducing the level of pERK: KYSE520, 48 h. The method, then: as §1, §2
Experiment [4] has as its system KYSE520 cell line. Description: Cell growth assay (WST-8) in KYSE520. Format: cell-based. Conditions: for IC50: KYSE520, 4 days, read-out: IC50, cell growth inhibition. The method, then:
as §3, §4
(Tetrazolium dyes change colour on reduction, which living cells bring about.)

In experiment [5] the target is T1, SHP2 (Homo sapiens, UniProt Q06124).
T1 sequence (Q06124 1-593): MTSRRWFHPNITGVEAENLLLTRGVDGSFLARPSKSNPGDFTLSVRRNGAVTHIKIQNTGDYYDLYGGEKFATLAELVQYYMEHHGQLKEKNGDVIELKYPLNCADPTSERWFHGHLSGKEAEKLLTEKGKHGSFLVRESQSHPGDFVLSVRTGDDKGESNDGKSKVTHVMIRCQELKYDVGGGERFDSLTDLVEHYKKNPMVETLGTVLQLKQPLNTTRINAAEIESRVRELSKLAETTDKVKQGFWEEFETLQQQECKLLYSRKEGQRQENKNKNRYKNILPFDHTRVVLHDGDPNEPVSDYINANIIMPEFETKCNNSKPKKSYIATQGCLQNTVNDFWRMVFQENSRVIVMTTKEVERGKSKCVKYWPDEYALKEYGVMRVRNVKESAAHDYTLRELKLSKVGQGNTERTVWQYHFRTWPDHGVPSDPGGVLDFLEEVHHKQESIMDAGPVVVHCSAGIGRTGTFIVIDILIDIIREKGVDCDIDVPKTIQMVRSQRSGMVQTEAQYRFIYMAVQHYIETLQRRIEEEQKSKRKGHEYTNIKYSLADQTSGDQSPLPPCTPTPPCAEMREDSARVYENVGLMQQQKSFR
The experiment is described as follows: SHP2 allosteric inhibition assay. It is filed as biochemical. Conditions: 0.5 nM SHP2, 0.5 µM bisphosphorylated IRS1 peptide, DiFMUP substrate. The method, then:
Assay buffer conditions: 60 mM HEPES, pH 7.2, 75 mM NaCl, 75 mM KCl, 0.05% P-20, 5 mM DTT,1 mM EDTA. 0.5 nM of SHP2 was incubated with 0.5 µM of bisphosphorylated IRS1 peptide and 100 µM (top concentration 3X dilution) of the inhibitory compounds. After incubation 60 min at RT, 5 µl 200 µM substrate DiFMUP (Invitrogen) was added and incubated another 30 min at RT. […] The fluorescence signal was detected by CLARIOstar (BMG tech), excitation wavelength was 340 nm and emission wavelength was 450 nm. The inhibitor dose-response curves were analyzed by Graphpad Prism 8.

The target in experiment [6] is T1, SHP2. The experiment is described as follows: SHP2 degradation by Western blot in MV4;11 cells.
Protocol: (§5) Western blotting and quantification were performed with regular western blot method and band quantification was performed using ImageJ. Treated cells were lysed by RIPA buffer supplemented with protease and phosphatase inhibitors. […] The net protein bands and loading controls are calculated by deducting the background from the inverted band value. The final relative quantification values are the ratio of the net band to net loading control.
(§6) The treated cells were harvested and the level of SHP2 protein was examined by blot analysis. GAPDH was used as a loading control.
(§7) SHP2 protein was examined by Western blotting and the protein level was quantified by densitometry and normalized to the corresponding density of the GAPDH protein. […] Cells were treated with 100 nM of SHP2-D26 for different times. SHP2 protein was examined by Western blotting and the GAPDH protein was used as the loading control.
The target in experiment [7] is T1, SHP2. Description: SHP2 degradation by Western blot in KYSE520 cells.
Protocol: as §5, §6, §7

Take `CC1(N)CCN(c2cnc(-c3cccc(Cl)c3Cl)c(N)n2)CC1` [SHP099, reference compound]: the “concentration for complete inhibition of pERK” value in experiment [1] is given as > 3,000 nM. The values for the IC50 in experiment [2] and in experiment [4] were 1000 nM and 18200 nM, respectively. The “concentration effective in reducing the level of pERK” value in experiment [3] was > 3,000 nM.

Consider `CC(=O)Nc1cccc(Sc2ncc(N3CCC(C)(N)CC3)nc2N)c1Cl` [Compound 5, N-(3-((3-amino-5-(4-amino-4-methylpiperidin-l-yl)pyrazin-2-yl)t′hio)-2-chlorophenyl)acetamide], for which the half-maximal inhibitory concentration (IC50) in experiment [5] is 98.7 nM; in experiment [2] (Homo sapiens, 96 h), 6600 nM; in experiment [4] (Homo sapiens, KYSE-520, 96 h), 39400 nM.

In the case of `Cc1ncsc1-c1ccc([C@@H](C)NC(=O)[C@H]2C[C@H](O)CN2C(=O)[C@H](NC(=O)CCCCCCCCN2CCN(C(=O)CCC(=O)Nc3cccc(Sc4ncc(N5CCC(C)(N)CC5)nc4N)c3Cl)CC2)C(C)(C)C)cc1` [Compound 26], in experiment [1] (MV4;11), the “times more potent than SHP099 in inhibition of pERK” value is above 30 times. Also, the “concentration for complete inhibition of pERK” value in experiment [1] came out at 100 nM. In addition, in experiment [6] (0.1 µM), the “% of SHP2 protein degradation in MV4;11 cell line” value is above 95%. Also, the DC50 in experiment [6] (read-out: DC50 (concentration needed to induced targeted protein degradation by 50%), MV4;11, 12 h) is 2.6 nM. In addition, the IC50 in experiment [2] (Homo sapiens, 96 h) worked out at 9.9 nM. Further, in experiment [2] (MV4;11), the “times more potent than SHP099 in cell growth inhibition” value is 100 times, the “times more potent than compound 4 in cell growth inhibition” value was above 400 times and the “times more potent than compound 5 in cell growth inhibition” value was above 600 times. For the same compound, the “times more potent than SHP099 in inhibition of pERK” value in experiment [3] (KYSE520) is above 30 times. Moreover, the “concentration effective in reducing the level of pERK” value in experiment [3] is given as 100 nM. Moreover, the “% of SHP2 protein degradation in KYSE520 cell line” value in experiment [7] (0.1 µM) is on record as above 95%. Also, the “% of SHP2 protein degradation in KYSE520 cell line” value in experiment [7] (1 µM) is reported as above 95%. For the same compound, in experiment [7] (KYSE520, 100 nM), the “time to reduce the SHP2 protein level” value was at most 4 h and the “treatment time for essentially complete SHP2 depletion” value stood at 8 h. Further, the DC50 in experiment [7] (read-out: DC50 (concentration needed to induced targeted protein degradation by 50%), KYSE520, 12 h) was determined as 6 nM. Besides, the IC50 in experiment [4] (Homo sapiens, KYSE-520, 96 h) worked out at 660 nM. Moreover, in experiment [4] (KYSE520), the “times more potent than SHP099 in inhibiting cell growth” value is 28 times, the “times more potent than compound 4 in inhibiting cell growth” value is given as 64 times and the “times more potent than compound 5 in inhibiting cell growth” value is 60 times.
